Measured values from DBAASP.
In brackets after ≈: the same amount, converted by molar mass. Each block holds one molecule with its values, some of them ahead of it.

Key:
Experiment in all cases: ≥ marks a high value that may be exact or a test limit, other limits are often not marked, values filed in µg/mL are converted to µM
[1] = test system: Burkholderia cepacia ATCC 25416
[2] = test system: Escherichia coli DSM 1103
Escherichia coli UB1005 = test system: Escherichia coli UB1005
[3] = test system: Klebsiella pneumoniae DSM 681
[4] = test system: Pseudomonas aeruginosa DSM 1128
[5] = test system: Pseudomonas aeruginosa H374
[6] = test system: Pseudomonas aeruginosa H547
[7] = test system: Pseudomonas aeruginosa H744
[8] = test system: Pseudomonas aeruginosa K799
[9] = test system: Pseudomonas aeruginosa Z61
[10] = test system: Salmonella enterica subsp. enterica serovar Typhimurium ATCC 14028s
[11] = test system: Staphylococcus aureus ATCC 25923
[12] = test system: Streptococcus pneumoniae DSM 11865
[13] = test system: Acinetobacter baumannii ATCC 19606
[14] = test system: Acinetobacter baumannii ATCC BAA-747
Acinetobacter junii RT-4 = test system: Acinetobacter junii RT-4
[15] = test system: Aeromonas hydrophila Rt-6
Bacillus megaterium Bm11 = test system: Bacillus megaterium Bm11
[16] = test system: Bacillus subtilis ATCC 6633
[17] = test system: Candida albicans ATCC 10231
[18] = test system: Candida parapsilosis ATCC 22019
Cryptococcus neoformans = test system: Cryptococcus neoformans
[19] = test system: Enterococcus faecalis ATCC 29212
[20] = test system: Enterococcus faecium ATCC 700221
[21] = test system: Escherichia coli ATCC 9637
Escherichia coli D21 = test system: Escherichia coli D21
[22] = test system: Klebsiella pneumoniae ATCC 27736
[23] = test system: Klebsiella pneumoniae ATCC 700603
[24] = test system: Pseudomonas aeruginosa ATCC 15692
[25] = test system: Pseudomonas aeruginosa ATCC 27583
[26] = test system: Pseudomonas aeruginosa ATCC 27853
[27] = test system: Pseudomonas aeruginosa ATCC BAA-427
Pseudomonas aeruginosa = test system: Pseudomonas aeruginosa
[28] = test system: Pseudomonas syringae pv. tabaci 1918NCPPB
Saccharomyces cerevisiae = test system: Saccharomyces cerevisiae
[29] = test system: Schizosaccharomyces pombe
[30] = test system: Staphylococcus aureus ATCC 29213
[31] = test system: Staphylococcus aureus ATCC 33592
[32] = test system: Staphylococcus aureus ATCC 43300
[33] = test system: Staphylococcus aureus ATCC 700698
[34] = test system: Staphylococcus aureus ATCC 700699
[35] = test system: Staphylococcus aureus ATCC BAA-44
[36] = test system: Staphylococcus aureus Cowan 1
Staphylococcus capitis 1 = test system: Staphylococcus capitis 1
[37] = test system: Staphylococcus epidermidis ATCC 12228
[38] = test system: Streptococcus pyogenes ATCC 21547
[39] = test system: Yersinia pseudotuberculosis YPIII
Bacillus subtilis 168 HT = test system: Bacillus subtilis 168 HT
Escherichia coli MG1655 = test system: Escherichia coli MG1655
Aspergillus fumigatus = test system: Aspergillus fumigatus
Bacillus cereus = test system: Bacillus cereus
Sporothrix schenckii = test system: Sporothrix schenckii
[40] = test system: Trichophyton mentagrophytes

MIC [1]: 20.9 µM (≈ 64 µg/mL)
MIC [2]: 2.04 µM (≈ 6.25 µg/mL)
MIC (Escherichia coli UB1005): 0.652 µM (≈ 2 µg/mL)
MIC [3]: 2.04 µM (≈ 6.25 µg/mL)
MIC [4]: 1.02 µM (≈ 3.13 µg/mL)
MIC [5]: 0.652 µM (≈ 2 µg/mL)
MIC [6]: 1.3 µM (≈ 4 µg/mL)
MIC [7]: 0.652 µM (≈ 2 µg/mL)
MIC [8]: 0.979 µM (≈ 3 µg/mL)
MIC [9]: 0.652 µM (≈ 2 µg/mL)
MIC [10]: 0.979 µM (≈ 3 µg/mL)
MIC [11]: 2.04 µM (≈ 6.25 µg/mL)
MIC [12]: 2.04 µM (≈ 6.25 µg/mL)
SMILES: CC[C@H](C)[C@H](NC(=O)CNC(=O)[C@@H](NC(=O)[C@H](CCCCN)NC(=O)[C@H](CCCCN)NC(=O)[C@H](Cc1ccccc1)NC(=O)[C@H](CC(C)C)NC(=O)[C@H](CCCCN)NC(=O)[C@H](Cc1c[nH]c2ccccc12)NC(=O)[C@@H](N)CCCCN)[C@@H](C)CC)C(=O)NCC(=O)N[C@@H](C)C(=O)N[C@H](C(=O)N[C@@H](CC(C)C)C(=O)N[C@@H](CCCCN)C(=O)N[C@H](C(=O)N[C@@H](CC(C)C)C(=O)N[C@H](C(=O)N[C@H](C(=O)NCC(=O)N[C@@H](CC(C)C)C(=O)N1CCC[C@H]1C(=O)N[C@@H](C)C(=O)N[C@@H](CC(C)C)C(=O)N[C@@H](CCCCN)C(=O)N[C@@H](CC(C)C)C(=O)N[C@H](C(=O)N[C@@H](CCCCN)C(=O)O)[C@@H](C)O)[C@@H](C)O)[C@@H](C)O)C(C)C)C(C)C [KWKLFKKIGIGAVLKVLTTGLPALKLTK]

MIC [13]: 6 µM (≈ 9.84 µg/mL)
MIC [14]: 4 µM (≈ 6.56 µg/mL)
MIC (Acinetobacter junii RT-4): 3 µM (≈ 4.92 µg/mL)
MIC [15]: ≥ 40 µM
MIC (Bacillus megaterium Bm11): 1.94 µM (≈ 3.18 µg/mL)
MIC [16]: 7.6 µM (≈ 12.5 µg/mL)
MIC [17]: 12 µM (≈ 19.7 µg/mL)
MIC [18]: 12 µM (≈ 19.7 µg/mL)
MIC (Cryptococcus neoformans): 12 µM (≈ 19.7 µg/mL)
MIC [19]: 6 µM (≈ 9.84 µg/mL)
MIC [20]: 8 µM (≈ 13.1 µg/mL)
MIC [21]: 12.5 µM (≈ 20.5 µg/mL)
MIC (Escherichia coli D21): 11 µM (≈ 18 µg/mL)
MIC [22]: 11.4 µM (≈ 18.7 µg/mL)
MIC [23]: 16 µM (≈ 26.2 µg/mL)
MIC [24]: 21.9 µM (≈ 35.9 µg/mL)
MIC [25]: ≥ 32 µM
MIC [26]: > 48 µM
MIC [27]: 7.6 µM (≈ 12.5 µg/mL)
MIC (Pseudomonas aeruginosa): 64 µM (≈ 105 µg/mL)
MIC [28]: 6 µM (≈ 9.84 µg/mL)
MIC (Saccharomyces cerevisiae): 6 µM (≈ 9.84 µg/mL)
MIC [29]: 6 µM (≈ 9.84 µg/mL)
MIC [30]: 3.6 µM (≈ 5.9 µg/mL)
MIC [31]: 3.6 µM (≈ 5.9 µg/mL)
MIC [32]: 4 µM (≈ 6.56 µg/mL)
MIC [33]: 3.6 µM (≈ 5.9 µg/mL)
MIC [34]: 3.6 µM (≈ 5.9 µg/mL)
MIC [35]: 3.6 µM (≈ 5.9 µg/mL)
MIC [36]: 2.74 µM (≈ 4.49 µg/mL)
MIC (Staphylococcus capitis 1): 1.5 µM (≈ 2.46 µg/mL)
MIC [37]: 1.94 µM (≈ 3.18 µg/mL)
MIC [38]: 6 µM (≈ 9.84 µg/mL)
MIC [39]: 3 µM (≈ 4.92 µg/mL)
SMILES: CC[C@H](C)[C@H](NC(=O)[C@H](CCCNC(=N)N)NC(=O)CNC(=O)[C@H](CC(C)C)NC(=O)[C@H](Cc1ccccc1)NC(=O)[C@H](CCCCN)NC(=O)[C@H](CO)NC(=O)[C@H](Cc1ccccc1)NC(=O)[C@H](Cc1c[nH]c2ccccc12)NC(=O)[C@H](CCC(N)=O)NC(=O)[C@@H](NC(=O)[C@@H](N)Cc1ccccc1)C(C)C)C(=O)N[C@@H](CC(C)C)C(N)=O [FVQWFSKFLGRIL]

MIC (Bacillus subtilis 168 HT): 9.4 µM (≈ 16 µg/mL)
MIC (Escherichia coli MG1655): ≥ 37.6 µM
SMILES: CC[C@H](C)[C@H](N)C(=O)N[C@@H](CO)C(=O)N[C@@H](CCCN=C(N)N)C(=O)N[C@@H](C)C(=O)N[C@@H](CS)C(=O)N[C@@H](CC(C)C)C(=O)N[C@H](C(=O)N[C@@H](CCSC)C(=O)N[C@@H](CCCCN)C(=O)N[C@H](C(=O)N[C@@H](CCCN=C(N)N)C(=O)N[C@@H](CCCN=C(N)N)C(=O)N[C@@H](CCCCN)C(=O)N[C@@H](CCCCN)C(=O)O)C(C)C)[C@@H](C)CC [ISRACLIMKVRRKK]

MIC (Aspergillus fumigatus): 27 µM (≈ 50 µg/mL)
MIC (Bacillus cereus): 1.7 µM (≈ 3.15 µg/mL)
MIC [18]: 6.76 µM (≈ 12.5 µg/mL)
MIC [21]: 13.5 µM (≈ 25 µg/mL)
MIC [22]: 3.38 µM (≈ 6.25 µg/mL)
MIC [27]: 13.5 µM (≈ 25 µg/mL)
MIC (Sporothrix schenckii): 6.76 µM (≈ 12.5 µg/mL)
MIC [11]: 1.7 µM (≈ 3.15 µg/mL)
MIC [40]: ≥ 54 µM
SMILES: CC(C)C[C@H](NC(=O)[C@H](CC(C)C)NC(=O)[C@H](CCCN=C(N)N)NC(=O)[C@H](CCCN=C(N)N)NC(=O)[C@H](C)NC(=O)[C@H](Cc1c[nH]c2ccccc12)NC(=O)[C@H](CCCN=C(N)N)NC(=O)[C@H](C)NC(=O)[C@H](C)NC(=O)[C@H](CCCN=C(N)N)NC(=O)[C@H](CCCN=C(N)N)NC(=O)[C@@H](N)CC(C)C)C(=O)N[C@@H](CCCN=C(N)N)C(=O)N[C@@H](CCCN=C(N)N)C(=O)O [LRRAARWARRLLRR]
